According to US20260085053A1, “BENZOFURAN DERIVATIVES AS SIK INHIBITORS AND THE USE THEREOF” (BEONE MEDICINES I GMBH, priority 2023, published 2026):

Assays:
[1] = target: T1, SIK3 kinase (aa59-365, Thermo Fisher) (Homo sapiens, UniProt Q9Y2K2); test: Biochemical activities determination for SIK3 protein (TR-FRET); settings: 125 uM ATP, 0.5 μM STK1 substrate
T1 construct: SIK3 kinase (aa59-365, Thermo Fisher); purchased Thermo Fisher
Protocol: 3. Biochemical Activities Determination for SIK3 Protein
Compounds were tested for inhibition of SIK3 kinase (aa59-365, Thermo Fisher) in assays based on the time-resolved fluorescence-resonance energy transfer (TR-FRET) methodology. The assays were carried out in 384-well low volume white plates in a reaction mixture containing SIK3 kinase, 125 uM ATP, 0.5 μM STK1 substrate and 0-10 μM compound in buffer containing 25 mM Tris, 0.01% Trition X-100, 0.5 mM EGTA, 5 mM MgCl2, 2.5 mM DTT, PH=7.5. The kinase was incubated with compound for 60 minutes at room temperature and the reaction was initiated by the addition of ATP and STK1 substrate. After reaction at room temperature for 180 minutes, an equal volume of stop/detection solution was added according to the manufacture's instruction (CisBio Bioassays). The stop/detection solution contained STK Antibody-Cryptate and XL665-conjugated streptavidin (Cat: 62ST1PEC, Cisbio) in Detection Buffer (Cat: 62SDBRDF, Cisbio). Plates were sealed and incubated at room temperature for overnight, and the TR-FRET signals (ratio of fluorescence emission at 665 nm over emission at 620 nm with excitation at 337 nm wavelength) were recorded on a PHERAstar FS plate reader (BMG Labtech). Phosphorylation of STK1 substrate led to the binding of STK Antibody-Cryptate to the biotinylated STK1 substrate, which places fluorescent donor (Eu^3+ crypate) in close proximity to the accepter (Streptavidin-XL665), thus resulting in a high degree of fluorescence resonance energy transfer from the donor fluorophore (at 620 nm) to the acceptor fluorophore (at 665 nm). […] The IC50 for each compound was derived from fitting the data to the four-parameter logistic equation by Dotmatics.

[2] = target: T2, SIK1 kinase (aa1-303, Thermo Fisher) (Homo sapiens, UniProt P57059); test: Biochemical activities determination for SIK1 protein (TR-FRET); settings: 110 uM ATP, 0.5 μM STK1 substrate
T2 construct: SIK1 kinase (aa1-303, Thermo Fisher); purchased Thermo Fisher
T2 sequence (P57059 1-303): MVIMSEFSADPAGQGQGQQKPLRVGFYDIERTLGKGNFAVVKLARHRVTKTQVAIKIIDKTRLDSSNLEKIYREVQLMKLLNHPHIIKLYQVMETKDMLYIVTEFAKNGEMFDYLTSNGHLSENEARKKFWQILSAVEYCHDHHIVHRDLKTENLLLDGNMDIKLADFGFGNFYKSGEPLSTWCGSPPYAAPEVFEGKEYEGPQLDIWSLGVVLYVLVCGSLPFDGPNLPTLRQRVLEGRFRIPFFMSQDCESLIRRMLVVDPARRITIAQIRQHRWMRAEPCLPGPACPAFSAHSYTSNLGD
Protocol: 1. Biochemical Activities Determination for SIK1 Protein
(§1) Compounds were tested for inhibition of SIK1 kinase (aa1-303, Thermo Fisher) in assays based on the time-resolved fluorescence-resonance energy transfer (TR-FRET) methodology. The assays were carried out in 384-well low volume white plates in a reaction mixture containing SIK1 kinase, 110 uM ATP, 0.5 μM STK1 substrate and 0-10 μM compound in buffer containing 25 mM Tris, 0.01% Trition X-100, 0.5 mM EGTA, 5 mM MgCl2, 2.5 mM DTT, pH=7.5. The kinase was incubated with compounds for 60 minutes at room temperature and the reaction was initiated by the addition of ATP and STK1 substrate. After reaction at room temperature for 180 minutes, an equal volume of stop/detection solution was added according to the manufacture's instruction (CisBio Bioassays). The stop/detection solution contained STK Antibody-Cryptate and XL665-conjugated streptavidin (Cat: 62ST1PEC, Cisbio) in Detection Buffer (Cat: 62SDBRDF, Cisbio). Plates were sealed and incubated at room temperature for overnight, and the TR-FRET signals (ratio of fluorescence emission at 665 nm over emission at 620 nm with excitation at 337 nm wavelength) were recorded on a PHERAstar FS plate reader (BMG Labtech). Phosphorylation of STK1 substrate led to the binding of STK Antibody-Cryptate to the biotinylated SIK1 substrate, which places fluorescent donor (Eu^3+ crypate) in close proximity to the accepter (Streptavidin-XL665), thus resulting in a high degree of fluorescence resonance energy transfer from the donor fluorophore (at 620 nm) to the acceptor fluorophore (at 665 nm). […] The IC50 for each compound was derived from fitting the data to the four-parameter logistic equation by Dotmatics.

[3] = target: T3, SIK2 kinase (full length, Thermo Fisher) (Homo sapiens, UniProt Q9H0K1); test: Biochemical activities determination for SIK2 protein (TR-FRET); settings: 80 uM ATP, 0.5 μM substrate
T3 construct: SIK2 kinase (full length, Thermo Fisher); purchased Thermo Fisher
T3 sequence (Q9H0K1 whole entry): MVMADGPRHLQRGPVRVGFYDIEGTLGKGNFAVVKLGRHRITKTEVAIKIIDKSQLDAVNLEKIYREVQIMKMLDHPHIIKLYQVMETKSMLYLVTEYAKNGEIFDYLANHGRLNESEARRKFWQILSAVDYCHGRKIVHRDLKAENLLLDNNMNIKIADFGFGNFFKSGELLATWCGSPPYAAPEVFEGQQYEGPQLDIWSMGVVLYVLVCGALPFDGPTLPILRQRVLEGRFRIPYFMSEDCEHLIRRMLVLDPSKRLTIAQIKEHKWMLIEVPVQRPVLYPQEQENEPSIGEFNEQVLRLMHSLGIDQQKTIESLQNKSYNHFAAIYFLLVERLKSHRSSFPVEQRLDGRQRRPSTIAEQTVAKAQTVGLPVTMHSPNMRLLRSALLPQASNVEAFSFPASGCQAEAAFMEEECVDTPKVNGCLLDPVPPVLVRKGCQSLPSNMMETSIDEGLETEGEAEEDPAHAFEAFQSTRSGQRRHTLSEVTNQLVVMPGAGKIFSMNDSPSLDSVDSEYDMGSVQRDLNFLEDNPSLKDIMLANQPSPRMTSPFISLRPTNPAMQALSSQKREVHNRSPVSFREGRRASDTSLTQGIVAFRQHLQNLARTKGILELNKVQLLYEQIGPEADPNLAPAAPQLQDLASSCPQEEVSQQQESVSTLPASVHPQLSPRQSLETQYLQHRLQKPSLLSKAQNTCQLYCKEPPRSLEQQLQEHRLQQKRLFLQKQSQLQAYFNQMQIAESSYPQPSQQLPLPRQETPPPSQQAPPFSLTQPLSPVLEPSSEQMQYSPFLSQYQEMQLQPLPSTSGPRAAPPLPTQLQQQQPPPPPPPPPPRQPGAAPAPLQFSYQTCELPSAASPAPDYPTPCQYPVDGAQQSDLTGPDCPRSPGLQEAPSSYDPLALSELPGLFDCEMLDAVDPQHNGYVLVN
Protocol: 2. Biochemical Activities Determination for SIK2 Protein
as §1, with “of SIK2” for “of SIK1”, “kinase (full length,” for “kinase (aa1-303,”, “containing SIK2” for “containing SIK1”, “kinase, 80” for “kinase, 110”, “μM […]” for “μM STK1”, “biotinylated STK1” for “biotinylated SIK1”

T1 sequence (Q9Y2K2 59-365): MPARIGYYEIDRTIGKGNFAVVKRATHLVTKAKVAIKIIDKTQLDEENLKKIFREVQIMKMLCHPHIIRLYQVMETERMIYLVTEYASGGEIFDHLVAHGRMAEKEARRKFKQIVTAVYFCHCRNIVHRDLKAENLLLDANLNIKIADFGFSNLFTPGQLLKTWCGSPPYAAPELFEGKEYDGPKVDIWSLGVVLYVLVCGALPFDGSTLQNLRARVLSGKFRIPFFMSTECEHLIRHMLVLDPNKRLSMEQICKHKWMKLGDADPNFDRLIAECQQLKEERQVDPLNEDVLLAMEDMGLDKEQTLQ

SMILES: COc1cc(-c2coc3cc(OCc4cncn4C)ccc23)cc2c1C(=O)N(CC(F)(F)F)CC2 [Compound 60, 8-methoxy-6-(6-((1-methyl-1H-imidazol-5-yl)methoxy)benzofuran-3-yl)-2-(2,2,2-trifluoroethyl)-3,4-dihydroisoquinolin-1 (2H)-one]
- IC50 [1]: 421 nM
- IC50 [2]: > 10000 nM
- IC50 [3]: 635 nM

SMILES: COc1cc(-c2coc3cc(-c4cn(C)nn4)ccc23)cc2c1C(=O)N(CC(F)(F)F)CC2 [Compound 17, 8-methoxy-6-(6-(1-methyl-1H-1,2,3-triazol-4-yl)benzofuran-3-yl)-2-(2,2,2-trifluoroethyl)-3,4-dihydroisoquinolin-1 (2H)-one]
- IC50 [1]: 79 nM
- IC50 [2]: 2310 nM
- IC50 [3]: 28 nM

SMILES: COc1cc(-c2coc3cc(OC(C)CN4CCCC4)ccc23)cc(OC(F)F)c1C(=O)N[C@@H]1C[C@@H]1F (stereo partly drawn) [Compound 68, 2-(difluoromethoxy)-N-((1R,2S)-2-fluorocyclopropyl)-6-methoxy-4-(6-((1-(pyrrolidin-1-yl)propan-2-yl)oxy)benzofuran-3-yl)benzamide]
- IC50 [1]: 139 nM
- IC50 [2]: 8180 nM
- IC50 [3]: 90 nM

SMILES: COc1cc(-c2coc3cc(OCCN4CC[C@@H](C)C4)ccc23)cc(OC(F)F)c1C(=O)N[C@@H]1C[C@@H]1F [Compound 78, 2-(difluoromethoxy)-N-((1R,2S)-2-fluorocyclopropyl)-6-methoxy-4-(6-(2-((R)-3-methylpyrrolidin-1-yl)ethoxy)benzofuran-3-yl)benzamide]
- IC50 [1]: 42 nM
- IC50 [2]: 1890 nM
- IC50 [3]: 19 nM

SMILES: COc1cc(-c2coc3cc(OCCN4CCC(C)CC4)ccc23)cc(OC(F)F)c1C(=O)N[C@@H]1C[C@@H]1F [Compound 94, 2-(difluoromethoxy)-N-((1R,2S)-2-fluorocyclopropyl)-6-methoxy-4-(6-(2-(4-methylpiperidin-1-yl)ethoxy)benzofuran-3-yl)benzamide]
- IC50 [1]: 74 nM
- IC50 [2]: 2870 nM
- IC50 [3]: 33 nM

SMILES: COc1cc(-c2coc3cc(OCCN4CCOCC4)ccc23)cc(OC(F)F)c1C(=O)N[C@@H]1C[C@@H]1F [Compound 69, 2-(difluoromethoxy)-N-((1R,2S)-2-fluorocyclopropyl)-6-methoxy-4-(6-(2-morpholinoethoxy)benzofuran-3-yl)benzamide]
- IC50 [1]: 45 nM
- IC50 [2]: 1270 nM
- IC50 [3]: 41 nM

SMILES: CCOc1cc(-c2coc3cc(OCCN4CCCC4)ccc23)cc(OC(F)F)c1C(=O)NC1CC1 [Compound 119, N-cyclopropyl-2-(difluoromethoxy)-6-ethoxy-4-(6-(2-(pyrrolidin-1-yl)ethoxy)benzofuran-3-yl)benzamide]
- IC50 [1]: 452 nM
- IC50 [2]: 7180 nM
- IC50 [3]: 136 nM

SMILES: COc1cc(-c2coc3cc(-c4cnn(C)c4)ccc23)cc(OC)c1-c1nnc(C2CC2)o1 [Compound 35, 2-cyclopropyl-5-(2,6-dimethoxy-4-(6-(1-methyl-1H-pyrazol-4-yl)benzofuran-3-yl)phenyl)-1,3,4-oxadiazole]
- IC50 [1]: 255 nM
- IC50 [2]: 2080 nM
- IC50 [3]: 132 nM

SMILES: COc1cc(-c2coc3cc(OCCN4CC[C@@H](OC)C4)ccc23)cc(OC(F)F)c1C(=O)N[C@@H]1C[C@@H]1F [Compound 79, 2-(difluoromethoxy)-N-((1R,2S)-2-fluorocyclopropyl)-6-methoxy-4-(6-(2-((R)-3-methoxypyrrolidin-1-yl)ethoxy)benzofuran-3-yl)benzamide]
- IC50 [1]: 57 nM
- IC50 [2]: 2190 nM
- IC50 [3]: 19 nM

SMILES: O=C(NC1CC1)c1c(F)cc(-c2coc3cc(OCCN4CCCC4)ccc23)cc1OC(F)F [Compound 105, N-cyclopropyl-2-(difluoromethoxy)-6-fluoro-4-(6-(2-(pyrrolidin-1-yl)ethoxy)benzofuran-3-yl)benzamide]
- IC50 [1]: 1770 nM
- IC50 [2]: > 10000 nM
- IC50 [3]: 398 nM

SMILES: COc1cc(-c2coc3cc(-c4cnn(C)c4)cc(F)c23)cc2c1C(=O)N(CC(F)(F)F)CC2 [Example 11, 6-(4-fluoro-6-(1-methyl-1H-pyrazol-4-yl)benzofuran-3-yl)-8-methoxy-2-(2,2,2-trifluoroethyl)-3,4-dihydroisoquinolin-1 (2H)-one]
- IC50 [1]: 155 nM
- IC50 [2]: 1550 nM
- IC50 [3]: 49 nM

SMILES: COc1cc(-c2coc3cc(-c4cn(C)nc4C)ccc23)cc2c1C(=O)N(CC(F)(F)F)CC2 [Compound 15, 6-(6-(1,3-dimethyl-1H-pyrazol-4-yl)benzofuran-3-yl)-8-methoxy-2-(2,2,2-trifluoroethyl)-3,4-dihydroisoquinolin-1 (2H)-one]
- IC50 [1]: 174 nM
- IC50 [2]: 6040 nM
- IC50 [3]: 95 nM

SMILES: CN1CC(n2cc(-c3ccc4c(-c5cc6c(c(OC(F)F)c5)C(=O)N(CC#N)CC6)coc4c3)cn2)C1 [Compound 57, 2-(8-(difluoromethoxy)-6-(6-(1-(1-methylazetidin-3-yl)-1H-pyrazol-4-yl)benzofuran-3-yl)-1-oxo-3,4-dihydroisoquinolin-2 (1H)-yl) acetonitrile]
- IC50 [1]: 17 nM
- IC50 [2]: 405 nM
- IC50 [3]: 2.7 nM

SMILES: O=C1c2c(cc(-c3coc4cc(-c5cnn(C6CCNCC6)c5)ccc34)cc2OC(F)F)CCN1CC(F)(F)F [Compound 43, 8-(difluoromethoxy)-6-(6-(1-(piperidin-4-yl)-1H-pyrazol-4-yl)benzofuran-3-yl)-2-(2,2,2-trifluoroethyl)-3,4-dihydroisoquinolin-1 (2H)-one]
- IC50 [1]: 57 nM
- IC50 [2]: 676 nM
- IC50 [3]: 8 nM

SMILES: COc1cc(-c2coc3cc(-c4cnn(C)c4)ccc23)cc2c1C(=O)N(CC#N)CC2 [Compound 20, 2-(8-methoxy-6-(6-(1-methyl-1H-pyrazol-4-yl)benzofuran-3-yl)-1-oxo-3,4-dihydroisoquinolin-2 (1H)-yl) acetonitrile]
- IC50 [1]: 14 nM
- IC50 [2]: 362 nM
- IC50 [3]: 12 nM

SMILES: O=C(NC1CC1)c1c(OCCO)cc(-c2coc3cc(OCCN4CCCC4)ccc23)cc1OC(F)F [Compound 103, N-cyclopropyl-2-(difluoromethoxy)-6-(2-hydroxyethoxy)-4-(6-(2-(pyrrolidin-1-yl)ethoxy)benzofuran-3-yl)benzamide]
- IC50 [1]: 410 nM
- IC50 [2]: 9500 nM
- IC50 [3]: 114 nM
